Where no end group is shown, it is not given here.
Experiments:
[1] = test system: cM1, cM2, cM3 and the dwf1 mutant; test: exogenous application of brassinolide to dwarf plants; type: in vivo, Arabidopsis; settings: data not shown
From the text: To ensure a reliable comparison of the complementary effects of normal DWF1 and the three mutants, T2 plants with similar expression levels were compared (FIG. 3b-d). […] Seeds were produced in most of the slightly shorter siliques of cM1 plants (FIG. 3b, c). […] The dwarf phenotypes of cM1, cM2, cM3 and the dwf1 mutant were rescued by exogenous application of brassinolide (data not shown).

DWF4 null mutant = test: complementation of DWF4 null mutant or overexpression, plant growth; type: in vivo, Arabidopsis
From the text: For example, partial dwarf Arabidopsis plants were generated through manipulation of the DWF4 CaMBD regulatory domain.

CC(C)[C@H](C)[C@@H](O)[C@H](O)[C@@H](C)[C@H]1CC[C@H]2[C@@H]3COC(=O)[C@H]4C[C@H](O)[C@H](O)C[C@]4(C)[C@H]3CC[C@]12C [brassinolide]
rescue of dwarf phenotypes [1]: rescued

DWF4 mutant having a L to D change at amino acid 21: DWF4 with L to D change at aa 21 within the N-terminal CaMBD (PSLLSDLLFLILLKRRNRKTRFNLP; not fully specified; listed as Arabidopsis thaliana)
plant growth phenotype (DWF4 null mutant; complementing a DWF4 null mutant): semi-dwarf

mutant having a L to V change at amino acid 28: DWF4 with L to V change at aa 28 within the N-terminal CaMBD (PSLLSLLLFLILVKRRNRKTRFNLP; listed as Arabidopsis thaliana)
plant growth phenotype (DWF4 null mutant; overexpression): enhanced growth

Source: patent publication US20070089183A1, “Size and/or growth engineering by modulation of the interaction between calmodulin, and brassinosteroid biosynthetic enzymes and orthologs therof” (Washington State University, priority 2005, published 2007)
